Patent US20090203877A1, “X-RAY-DENSE CONJUGATE” (Eberhard-Karls-Universitaet Tuebingen Universitaetsklinkum, priority 2006, published 2009)
Entries after “also recorded” stand apart in the source; their conditions may differ.

Test system: human malignant U373 glioma cells
Experiment: Uptake/staining of cells by FITC-labelled conjugates (fluorescence microscopy, CLSM, FACS, semi-thin sections)
Type: cell-based
Conditions: for strongly labeled (heavily stained) cells, FACS: 20 min incubation; for stained cells: 260 μM in PBS, 20 min (experiments with conjugates 9-15)
Experimental: Fluorescence was measured in a Becton Dickinson FACSCalibur. […] The investigations were performed in triplicate.
For CT and FACS human U373 glioma cells were grown under the same conditions in 75 cm^2 culture flasks (Corning Costar, Bodenheim, Germany) (70% confluency). Accutase™ (PAA laboratories, Pasching, Austria) was added to achieve detachment of the cells which were harvested and subsequently aliquoted into Eppendorf tubes (6×10^6 cells per tube). As in the investigations performed by fluorescence microscopy, the cells in the first tube served as a control (PBS only). The cells in the other tubes were incubated with 260 μM Ultravist, 260 μM TIBA in PBS and 26 μM, 260 μM and 2.6 mM conjugates 1-4 in PBS. After a 20 minute incubation period at 37° C. in an atmosphere of 5% CO2, the cells were washed three times in PBS and centrifuged at 800 rpm for 5 minutes.
The FACS analysis was performed as described under 1.4.
The human malignant U373 and LN18 glioma cells were cultivated in 75 cm^2 culture flasks (Corning Costar) (70% confluency) under the conditions as described under 1.4, detached from the flask bottom with Accutase™ (PAA Laboratories) and in the following distributed on Eppendorf tubes (Eppendorf, Hamburg, Germany) (6×10^6 per tube). The cells in the first tube serve as a control (only PBS buffer only). The cells in the other ten tubes were each incubated with benzoic acid (BA), monoiodobenzoic acid (MIBA) or diiodobenzoic acid (DIBA) alone (260 μM), conjugate 3 alone (260 μM), conjugate 3 plus either BA, MIBA or DIBA (260 μM), respectively, and the conjugates 9, 10, and 11 alone. (260 μM).
After an incubation of 20 minutes at 37° C./5% CO2 the cells were washed three times with PBS buffer and centrifuged at 800 rpm (rounds per minute) for 5 minutes. The fluorescence was measured in Becton Dickinson FACSCalibur as described under 1.4. The computer tomography was performed as described under 1.5.1. The examinations were repeated two times.
For the CT and FACS examinations human LN-18 and U373 glioma cells were cultivated in 75 cm^2 culture flasks (Corning Costar) (70% confluency) (conditions as described under 1.4). Accutase™ (PAA Laboratories) was added to detach the cells from the bottom of the culture flasks. The cells were collected and then distributed on Eppendorf tubes (6×10^6 cells per tube). The cells in the first two tubes serve as a control (in each case only PBS, LN18 and U373 glioma cells, native). The cells in the other tubes (in each case LN18 and U373 glioma cells) were incubated with a 260 μM or 2.6 mM solution of the conjugate 12 for 20 minutes at 37° C. and 5% CO2 and in the following washed for three times with PBS buffer and centrifuged for 5 minutes with 800 rpm (rounds per minute). For a small amount of the cells it was tested by the MMT test (see 1.4) how many of the cells were still viable. The computer tomography of the cell centrifuges was performed with the Somatom Sensation 16 (Siemens).
The FACS analysis was performed as described under 1.4. The assay was repeated two times.
For the CT and FACS examinations human LN18 and U373 glioma cells were cultivated in 75 cm^2 culture flasks (70% confluency) (conditions as described under section 1). Accutase™ (PAA Laboratories) was added to detach the cell from the culture bottom. The cells were collected and then distributed on Eppendorf-tubes (6×10^6 cells per tube). […] The next three tubes were used for the coincubation of the cells either with trichlorobenzoic acid (TCBA), trifluorobenzoic acid (TFBA) or tribromophenyl Isocyanat (TBPI) and the NLS-FITC-conjugate 3 (260 μM). As control cells were used which were only either incubated with CIBA, FIBA, TBPI (in each case 260 μM in PBS) or with PBS-buffer (native control) alone. […] The computer tomography and FACS analysis of the cell centrifuges were performed as described in 1.5.1 or 1.4, respectively for three times. […]

Substance | strongly labeled (heavily stained) cells, FACS (26 μM) [%] | stained cells [%] | strongly labeled (heavily stained) cells, FACS (260 μM) [%] | strongly labeled (heavily stained) cells, FACS (2.6 mM) [%] | number of stained cells / cellular staining rate (conjugate co-incubated with free TIBA (260 μM)) | staining of cell nuclei (CLSM overview) (260 μM) | staining of nucleoli in semi-thin sections (about 0.4 μm) (fluorescence microscopy after incubation)
PKKKRKVK(FITC)GGK (FITC, GGK linker) [conjugate 3, FITC-labelled correct NLS of the SV 40 T antigen without TIBA] | 6 | 8 | 7 | 10 | not associated with a higher cellular staining rate; also recorded: did not result in any changes | – | –
PKKKRKVK(FITC)GGK(BA) (FITC, GGK linker, benzoic acid) [conjugate 9, FITC-labelled NLS of the SV 40 T antigen with non-iodized benzoic acid] | – | 8 | – | – | – | – | –
PKKKRKVK(FITC)GGK(TIBA) (FITC, GGK linker, TIBA) [conjugate 1, FITC-labelled correct NLS of the SV 40 T antigen with TIBA] | 32 | – | 32 | 93 | – | A very large number of cell nuclei has been stained | clearly stained
